Results as given in ChEMBL document CHEMBL1201862, “PubChem BioAssay data set” (2004).
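Exposure lasted 48 hours, with cells grown in 96-well plates and compounds tested at five concentrations. Here, GI50 denotes the concentration required for 50% inhibition of growth.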 Calls of active or inactive are those of the source. No stated cut-off is given here; in the data, active = GI50 up to about 1.1 µM and inactive = higher.

Columns and labels:
Experiment in all cases: NCI tumour cell line growth inhibition, 48 h
DU-145 = test system: DU-145
UACC-62 = test system: UACC-62
SK-MEL-2 = test system: SK-MEL-2
OVCAR-4 = test system: OVCAR-4
SNB-19 = test system: SNB-19
MDA-MB-231 = test system: MDA-MB-231
SF-268 = test system: SF-268
EKVX = test system: EKVX
LOX IMVI = test system: LOX IMVI
U-251 = test system: U-251
MOLT-4 = test system: MOLT-4
CCRF-CEM = test system: CCRF-CEM
COLO 205 = test system: COLO 205
HCT-15 = test system: HCT-15
RPMI-8226 = test system: RPMI-8226
NCI-H226 = test system: NCI-H226
UO-31 = test system: UO-31
RXF 393 = test system: RXF 393
HOP-62 = test system: HOP-62
OVCAR-3 = test system: OVCAR-3
NCI-H522 = test system: NCI-H522
NCI/ADR-RES = test system: NCI/ADR-RES
MDA-N = test system: MDA-N
M14 = test system: M14
Malme-3M = test system: Malme-3M
NCI-H23 = test system: NCI-H23
SF-539 = test system: SF-539
UACC-257 = test system: UACC-257
HT-29 = test system: HT-29
OVCAR-5 = test system: OVCAR-5
HCT-116 = test system: HCT-116
HL-60 = test system: HL-60
SNB-75 = test system: SNB-75
CAKI-1 = test system: CAKI-1
786-0 = test system: 786-0
TK-10 = test system: TK-10
NCI-H460 = test system: NCI-H460
A498 = test system: A498
Hs-578T = test system: Hs-578T
ACHN = test system: ACHN
HOP-92 = test system: HOP-92
PC-3 = test system: PC-3
A549 = test system: A549
SF-295 = test system: SF-295
T47D = test system: T47D
BT-549 = test system: BT-549
MDA-MB-435 = test system: MDA-MB-435
SR = test system: SR
IGROV-1 = test system: IGROV-1
SW-620 = test system: SW-620
OVCAR-8 = test system: OVCAR-8
SK-OV-3 = test system: SK-OV-3
SN12C = test system: SN12C
KM12 = test system: KM12
SK-MEL-5 = test system: SK-MEL-5
MCF7 = test system: MCF7
K562 = test system: K562
HCC 2998 = test system: HCC 2998
SK-MEL-28 = test system: SK-MEL-28

In the case of `Cc1nn(-c2ccccc2)c2c1C(c1cc3ccccc3nc1Cl)NC(=S)N2` (stereo unspecified), the GI50 (DU-145) is reported as > 100 µM (inactive), the GI50 (UACC-62) is reported as 76.7 µM (inactive) and the GI50 (SK-MEL-2) is reported as 14.5 µM (inactive). For the same molecule, the GI50 (OVCAR-4) was 65.3 µM (inactive), the GI50 (SNB-19) was 57.3 µM (inactive) and the GI50 (MDA-MB-231) was > 100 µM (inactive). For the same molecule, the GI50 (SF-268) was 34.8 µM (inactive), the GI50 (EKVX) was 92.7 µM (inactive) and the GI50 (LOX IMVI) was 22.6 µM (inactive). For the same molecule, the GI50 (U-251) was 23.4 µM (inactive), the GI50 (MOLT-4) was 29.4 µM (inactive) and the GI50 (CCRF-CEM) was 31.9 µM (inactive). For the same molecule, the GI50 (COLO 205) was > 100 µM (inactive), the GI50 (HCT-15) was 31.8 µM and the GI50 (RPMI-8226) was 20.7 µM (inactive). For the same molecule, the GI50 (NCI-H226) was > 100 µM (inactive), the GI50 (UO-31) was 20.8 µM (inactive) and the GI50 (RXF 393) was 26.3 µM (inactive). For the same molecule, the GI50 (HOP-62) was > 100 µM (inactive), the GI50 (OVCAR-3) was 54 µM (inactive) and the GI50 (NCI-H522) was 14.3 µM (inactive). The GI50 (NCI/ADR-RES) was 46.3 µM (inactive), the GI50 (MDA-N) was 45.7 µM (inactive) and the GI50 (M14) was > 100 µM (inactive). For the same molecule, the GI50 (Malme-3M) was > 100 µM (inactive), the GI50 (NCI-H23) was 67.3 µM (inactive) and the GI50 (SF-539) was 24.8 µM (inactive). For the same molecule, the GI50 (UACC-257) was > 100 µM (inactive), the GI50 (HT-29) was 44.9 µM (inactive) and the GI50 (OVCAR-5) was > 100 µM (inactive). The GI50 (HCT-116) was 36.1 µM (inactive), the GI50 (HL-60) was 35.5 µM (inactive) and the GI50 (SNB-75) was 82.2 µM (inactive). The GI50 (CAKI-1) was 59.4 µM (inactive), the GI50 (786-0) was 33 µM (inactive) and the GI50 (TK-10) was 58.5 µM (inactive). The GI50 (NCI-H460) was > 100 µM (inactive), the GI50 (A498) was 71 µM (inactive) and the GI50 (Hs-578T) was 37.7 µM (inactive). For the same molecule, the GI50 (ACHN) was 54.2 µM (inactive), the GI50 (HOP-92) was 18.2 µM (inactive) and the GI50 (PC-3) was 67.1 µM (inactive). The GI50 (A549) was > 100 µM (inactive), the GI50 (SF-295) was 43.4 µM (inactive) and the GI50 (T47D) was > 100 µM (inactive). For the same molecule, the GI50 (BT-549) was 47.4 µM (inactive), the GI50 (MDA-MB-435) was 29 µM (inactive) and the GI50 (SR) was 44.6 µM (inactive). The GI50 (IGROV-1) was 12 µM (inactive), the GI50 (SW-620) was 30.1 µM (inactive) and the GI50 (OVCAR-8) was 27.9 µM (inactive). For the same molecule, the GI50 (SK-OV-3) was 97.5 µM (inactive), the GI50 (SN12C) was 78.3 µM (inactive) and the GI50 (KM12) was 30.7 µM (inactive). For the same molecule, the GI50 (SK-MEL-5) was 58.6 µM (inactive), the GI50 (MCF7) was 38 µM (inactive) and the GI50 (K562) was 39.5 µM (inactive).

With `CCN1C(=S)n2cccc2C1CC(=O)c1ccc(Cl)cc1` (stereo unspecified) the GI50 (DU-145) was > 100 µM (inactive), the GI50 (UACC-62) was 62.2 µM (inactive) and the GI50 (SK-MEL-2) was 58.2 µM (inactive). The GI50 (OVCAR-4) was 93.3 µM (inactive), the GI50 (SNB-19) was 75.3 µM (inactive) and the GI50 (MDA-MB-231) was 59.6 µM (inactive). The GI50 (SF-268) was 63.1 µM (inactive), the GI50 (EKVX) was 32.3 µM (inactive) and the GI50 (LOX IMVI) was 58.9 µM (inactive). For the same molecule, the GI50 (U-251) was 36 µM (inactive), the GI50 (MOLT-4) was 22.8 µM (inactive) and the GI50 (HCT-15) was 51.8 µM. The GI50 (RPMI-8226) was 15.7 µM (inactive), the GI50 (UO-31) was 42.9 µM (inactive) and the GI50 (RXF 393) was > 100 µM (inactive). For the same molecule, the GI50 (HOP-62) was > 100 µM (inactive), the GI50 (OVCAR-3) was 74 µM (inactive) and the GI50 (HCC 2998) was 73.8 µM (inactive). For the same molecule, the GI50 (NCI-H522) was 15.5 µM (inactive), the GI50 (NCI/ADR-RES) was 42.4 µM (inactive) and the GI50 (MDA-N) was 88.5 µM (inactive). The GI50 (M14) was 89.9 µM (inactive), the GI50 (Malme-3M) was 57.3 µM (inactive) and the GI50 (NCI-H23) was 13 µM (inactive). The GI50 (UACC-257) was 18.4 µM (inactive), the GI50 (HT-29) was 68.7 µM (inactive) and the GI50 (OVCAR-5) was 87.9 µM (inactive). The GI50 (SK-MEL-28) was 54.1 µM (inactive), the GI50 (HCT-116) was 33 µM (inactive) and the GI50 (HL-60) was 26.7 µM (inactive). The GI50 (SNB-75) was 54.7 µM (inactive), the GI50 (CAKI-1) was > 100 µM (inactive) and the GI50 (786-0) was > 100 µM (inactive). For the same molecule, the GI50 (TK-10) was 95.9 µM (inactive), the GI50 (NCI-H460) was 34.7 µM (inactive) and the GI50 (A498) was 43.5 µM (inactive). The GI50 (Hs-578T) was > 100 µM (inactive), the GI50 (ACHN) was > 100 µM (inactive) and the GI50 (HOP-92) was > 100 µM (inactive). The GI50 (PC-3) was 40.2 µM (inactive), the GI50 (A549) was 15.3 µM (inactive) and the GI50 (SF-295) was 63.7 µM (inactive). The GI50 (T47D) was 56.6 µM (inactive), the GI50 (BT-549) was 64.9 µM (inactive) and the GI50 (MDA-MB-435) was 56.1 µM (inactive). For the same molecule, the GI50 (SR) was 57 µM (inactive), the GI50 (IGROV-1) was > 100 µM (inactive) and the GI50 (SW-620) was 42.9 µM (inactive). For the same molecule, the GI50 (OVCAR-8) was > 100 µM (inactive), the GI50 (SK-OV-3) was > 100 µM (inactive) and the GI50 (SN12C) was > 100 µM (inactive). For the same molecule, the GI50 (KM12) was > 100 µM (inactive), the GI50 (MCF7) was 24.8 µM (inactive) and the GI50 (K562) was 53.7 µM (inactive).
